# Legend:
# [1] = tested on: serum response element (SRE); assay: SRE luciferase reporter assay in stable HaCaT cells; type: cell-based, human; conditions: 6 h incubation
# Description: (§1) HaCaT (human keratinocyte), HUVEC-CS (endothelial cells) cells were cultured in Dulbecco's modification of Eagle's medium (DMEM) supplemented with 10% fetal bovine serum and 100 U/mL of penicillin and streptomycin. Normal Human Epidermal Keratinocytes adult purchased from Lifeline® cell technology were cultured in Lifeline® DermaLife K Medium. They were grown in a 5% CO2 humidified incubator at 37° C. HaCaT cells were stably transfected with pGL4.33[luc2P/SRE/Hygro] (Promega) and selected using 250 μg/mL hygromycin. Stable HaCaT cells expressing SRE luciferase reporter were maintained with 250 μg/mL hygromycin.
# Briefly, the cells were cultured in a white 96-well plates to achieve 90% confluency. […] The luciferase assay was performed using the ONE-Glo EX Luciferase Assay System (Promega, US) as per the manufacturer's instructions. Luminescence was measured using a microplate reader (Tecan Infinite® 200 Pro, Switzerland).
# HaCaT cells [2] = assay: Cell migration scratch assay; type: cell-based, human; conditions: data not shown
# Description: Cell migration was monitored using the scratch assay. Briefly, HaCaT cells were seeded into 2 well silicone inserts with a defined gap of 500 μm (ibidi, Germany). […] After incubation for 8 h, the wells were photographed using inverted phase-contrast microscope. Images were analyzed for the percentage of cell-free area using the Wimasis image analysis platform.
# newborn ICR mice = assay: Newborn mice model for incisor eruption; type: in vivo, mouse; conditions: 3 mg/kg subcutaneous, five consecutive days; saline control 153 h
# Description: ICR mice were obtained from Vital Rital Laboratories (Beijing, China). […] All experiments were approved and performed in accordance with the institutional guidelines of the Experimental Animal Center of the Chinese Academy of Medical Science (Beijing, China). Subcutaneous injections were made for five consecutive days in the nape of the neck of the newborn mice starting from the day of birth (day 0). […] Incisor eruption was recorded daily by visual inspection. Incisor eruption was defined as the time at which a given tooth first pierced the oral epithelium.
# MEK1/2 = assay: Western blot of phosphorylated MEK1/2 in HaCaT cells; type: cell-based, human; conditions: 5 μM
# Description: (§2) Blot transfer was performed onto a PVDF membrane (GE healthcare, Sweden) at 250 mA for 120 min on ice. The blot was blocked with 5% BSA TBST before incubating overnight at 4° C. with anti-P-MEK1/2 rabbit antibody (1:2000 in 5% BSA TBST; Cell Signaling, US), anti-MEK1/2 rabbit antibody (1:2000 in 5% BSA TBST; Cell Signaling, US), anti-P-ERK1/2 rabbit antibody (1:2000 in 5% BSA TBST; Cell Signaling, US), anti-ERK1/2 rabbit antibody (1:2000 in 5% BSA TBST; Cell Signaling, US), and anti-β-actin mouse antibody (1:10000 in 5% BSA TBST; Merck Millipore, US). After incubation, the membrane was washed with TBST at room temperature three times for 10 min each. The blot was then incubated with secondary anti-mouse or anti-rabbit horseradish peroxidase (HRP) (1:5000 in 5% BSA TBST; Cell Signaling, US) and was incubated for another 1 h at room temperature. The blot was washed five times 10 min each with TBST at room temperature before addition of chemiluminescence substrate (Advansta, US) and exposure on X-ray film (Fujifilm, Japan).
# C57BL/6 mice = assay: Full-thickness splinted excisional wound healing in C57BL/6 mice; type: in vivo, mouse; conditions: topical, three consecutive days; bleogen pB1 10 nmol/wound, EGF 1 nmol/wound; vs saline
# Description: C57BL/6 mice were obtained from Vital Rital Laboratories (Beijing, China). […] All experiments were approved and performed in accordance with the institutional guidelines of the Experimental Animal Center of the Chinese Academy of Medical Science (Beijing, China).
# Full-thickness 5-mm splinted excisional wounding of mice was performed. Briefly, mice were anesthetized using an intraperitoneal injection of sodium pentobarbital (50 mg kg^−1). The hair of the back was shaved with an electric clipper followed by a depilatory cream. Using a 5-mm-diameter sterile biopsy punch, symmetrical full-thickness excisional wounds were created. Splints were placed around the wound using adhesive glue and secured with four interrupted sutures. The wounds and splints were covered with Tegaderm (3M, US). At indicated days within the 14 days post-injury course, wound diameters were measured. The size of wound was calculated from the average of two diameter measurements along the x and y axis.
# Full-thickness 5 mm splinted excisional wounding of mice was performed on C57BL/6 mice as described above.
# ERK1/2 = assay: Western blot of phosphorylated ERK1/2 in HaCaT cells; type: cell-based, human; conditions: 5 μM
# Description: as §2
# Human serum stability = conditions: 25% human serum
# Description: The test samples were incubated at 37° C. Samples were collected at various time points. The collected samples were subjected to protein precipitation with 100% ethanol and centrifugation at 180,000 g for 5 min at 4° C. The supernatant was collected for analysis.
# All collected samples from various stability assays were analyzed by RP-HPLC with a linear gradient of mobile phase A (0.05% TFA/H2O) and mobile phase B (0.05% TFA/ACN) on aeris peptide XB-C18 column (Phenomenex, US). The resulting peaks were collected and identified by MALDI-TOF MS. The results were expressed as percentage of initial concentration using the peak area of the HPLC profile.
# c-fos = assay: Gene expression analysis (qPCR) of c-fos in HaCaT cells; type: cell-based, human; conditions: 2 h treatment
# Description: Total RNA was extracted from HaCaT and primary human keratinocytes using PureLink™ RNA mini kit (Thermo Fisher Scientific, US). First-strand cDNA was synthesised from 600 ng of total RNA using SuperScript™ II Reverse Transcriptase and Oligo(dT)12-18 (Thermo Fisher Scientific, US) according to the manufacturer's instructions. Quantitative PCR (qPCR) was performed with iTaq Universal SYBR Green Supermix (Bio-Rad, US) on a CFX96 Touch Real-Time PCR Detection System (Bio-Rad, US) for 40 cycles. PCR reaction (20 μL): 3 μL cDNA, 1 μL primer mix (10 μM), 6 μL DEPC-treated water and 10 μL mastermix. […] GAPDH was used as a housekeeping gene for normalization. Fold changes of gene expressions with c-fos and c-Jun were calculated using the 2^−ΔΔCT method.
# [3] = tested on: primary human keratinocytes; assay: Primary human keratinocyte proliferation (crystal violet); type: cell-based; conditions: 72 h, crystal violet assay
# Description: as §1
# (§3) Cell proliferation was determined using crystal violet staining. […] 3417-Da-peptide aB1 is a CRP isolated from Achyranthes bidentata with the amino acid sequence […] (SEQ ID NO:11). Crystal violet staining was performed as previously described. Briefly, after the incubation period, the wells were fixed with 4% buffered paraformaldehyde for 20 min. The cells were then stained with 0.25% crystal violet in 20% methanol for 15 min. The excess crystal violet stain was rinsed with distilled water for 4-5 times and air-dried. Glacial acetic acid (10%) in Milli-Q water was added to extract the crystal violet stain. The absorbance was then measured at 595 nm using a microplate reader (Tecan Infinite® 200 Pro, Switzerland).
# HaCaT cells [4] = type: cell-based, human
# Description: as §1, §3
smiles,measurement,setting,value
CC[C@H](C)[C@@H]1NC(=O)[C@H](CCC(=O)O)NC(=O)[C@H]([C@@H](C)O)NC(=O)[C@@H]2CSSC[C@@H]3NC(=O)[C@H](Cc4ccccc4)NC(=O)[C@H](CC(N)=O)NC(=O)[C@H](CO)NC(=O)[C@H](CSSC[C@H](NC(=O)[C@@H](N)CCC(N)=O)C(=O)N[C@@H](CCCCN)C(=O)N4CCC[C@H]4C(=O)N[C@@H](CC(N)=O)C(=O)NCC(=O)N[C@@H](C)C(=O)N[C@@H](CCCCN)C(=O)N2)NC(=O)[C@H](CSSC[C@@H](C(=O)N[C@@H](C)C(=O)N[C@@H](CC(N)=O)C(=O)N[C@@H](CCCNC(=N)N)C(=O)O)NC(=O)[C@H]([C@@H](C)O)NC(=O)CNC(=O)[C@H](CO)NC(=O)[C@H](CCCCN)NC(=O)[C@H](CCC(N)=O)NC(=O)CNC(=O)[C@H](C)NC(=O)[C@H](Cc2ccc(O)cc2)NC(=O)[C@H](CCCNC(=N)N)NC(=O)[C@H](CC(C)C)NC3=O)NC(=O)[C@@H]2CCCN2C(=O)[C@@H]2CCCN2C(=O)[C@H]([C@@H](C)CC)NC(=O)[C@H](CO)NC1=O [bleogen pB1],SRE-luciferase activity,[1],"dose-dependently, increases the luciferase activity"
same,HaCaT cell migration,HaCaT cells [2],accelerate
same,time of incisor eruption in newborn mice,newborn ICR mice,125 h
same,phosphorylation of MEK1/2,MEK1/2,induces the phosphorylation
same,"wound healing, full-thickness excision wound model in C57 mice",C57BL/6 mice,accelerated wound healing from day 3 to day 11
same,phosphorylation of ERK1/2,ERK1/2,induces the phosphorylation
same,half-life at 0.1 M,Human serum stability,> 33.3 days
same,mRNA expression of c-fos,c-fos,significantly upregulate
same,proliferation of primary human keratinocytes,[3],promotes the proliferation
same,"proliferative activities on HaCaT cells, native versus synthetic",HaCaT cells [4],identical proliferative activities
same,EC50,HaCaT cells [4]; 72 h,130 nM
same,difference in mitogenic potency between EGF and pB1,HaCaT cells [4]; HaCaT cell proliferation EC50,100 fold
same,EGFR dependence of proliferative/mitogenic effect,HaCaT cells [4]; co-incubation with EGFR neutralizing antibody (clone LA1),EGFR-dependent

# — patent US20220257706A1, “EPIDERMAL GROWTH FACTOR RECEPTOR (EGFR) LIGANDS” (NANYANG TECHNOLOGICAL UNIVERSITY, priority 2019, published 2022)
